# Results published in paper PMC11790914, “Chemogenomics for steroid hormone receptors (NR3)” (Communications Chemistry, 2025).
# “And” between values parts separate entries of the source, which are not always exact repeats. Equal values may be shown once.
# Assays:
# [1] = biological target: T1, AURKA (Homo sapiens, UniProt O14965); experiment: Liability panel screening by DSF: AURKA; assay type: binding; conditions: DSF, 20 µM, n=2; read-out: Mean ΔTM AURKA
# T1 construct: made in house
# T1 sequence (O14965 1-403): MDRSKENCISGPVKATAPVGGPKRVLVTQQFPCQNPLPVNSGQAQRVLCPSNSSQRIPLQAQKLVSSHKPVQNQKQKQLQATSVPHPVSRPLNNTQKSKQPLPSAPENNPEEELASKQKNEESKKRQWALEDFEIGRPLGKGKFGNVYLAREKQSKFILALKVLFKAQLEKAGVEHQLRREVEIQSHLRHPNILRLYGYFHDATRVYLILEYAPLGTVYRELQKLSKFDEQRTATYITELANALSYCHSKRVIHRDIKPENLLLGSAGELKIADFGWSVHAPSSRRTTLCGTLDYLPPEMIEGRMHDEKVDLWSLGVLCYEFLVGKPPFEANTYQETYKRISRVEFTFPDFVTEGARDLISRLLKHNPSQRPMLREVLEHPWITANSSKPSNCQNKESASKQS
# Outline: (§1)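 Recombinant protein at 2 µM in 10 mM HEPES pH 7.5 with 500 mM NaCl was mixed with SYPRO Orange (1:1000) and heated at 3 °C/min up to 85 °C. Tm was taken as the Boltzmann-fit inflection point. Shifts are ∆Tm in K from technical duplicates.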
# [2] = biological target: T2, TRIM24 (Homo sapiens, UniProt O15164); experiment: Liability panel screening by DSF: TRIM24; assay type: binding; conditions: DSF, 20 µM, n=2; read-out: Mean ΔTM TRIM24
# T2 construct: This panel comprised ten highly ligandable kinases and bromodomains; made in house
# T2 sequence (O15164 899-1004 limits assumed): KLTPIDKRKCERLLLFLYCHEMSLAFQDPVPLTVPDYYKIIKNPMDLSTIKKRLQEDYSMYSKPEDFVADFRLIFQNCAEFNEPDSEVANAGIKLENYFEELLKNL
# Outline: as §1
# [3] = tested on: NF-κB activity in HEK293 NF-κB reporter cells; experiment: NF-kB activity assay (GFP reporter, ionomycin/PMA); assay type: cell-based; conditions: n=3
# Outline: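 HEK293 NF-κB GFP reporter cells given compound in 0.1% DMSO for 4 h, then stimulated with ionomycin 100 ng/mL plus PMA 10 ng/mL. Imaged every 90 min over 24 h; GFP-positive cell count normalized to confluence, three independent biological replicates.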
# [4] = tested on: HEK293T cells; experiment: Cytotoxicity: metabolic activity (WST-8 / CCK-8 assay); conditions: single replicates
# [5] = biological target: T3, MAPK1 (Homo sapiens, UniProt P28482); experiment: Liability panel screening by DSF: MAPK1; assay type: binding; conditions: DSF, 20 µM, n=2; read-out: Mean ΔTM MAPK1
# T3 construct: made in house
# Outline: as §1
# [6] = biological target: T4, BRD4 (Homo sapiens, UniProt O60885); experiment: Liability panel screening by DSF: BRD4; assay type: binding; conditions: DSF, 20 µM, n=2; read-out: Mean ΔTM BRD4
# T4 construct: This panel comprised ten highly ligandable kinases and bromodomains; made in house
# Outline: as §1
# [7] = biological target: T5, ABL1 (Homo sapiens, UniProt P00519); experiment: Liability panel screening by DSF: ABL1; assay type: binding; conditions: DSF, 20 µM, n=2; read-out: Mean ΔTM ABL1
# T5 construct: made in house
# Outline: as §1
# [8] = tested on: HEK293T cells; experiment: Cytotoxicity: growth-rate (change in confluence over 24 h); conditions: normalized to 0.1% DMSO control, single replicates (n=1...)
# [9] = tested on: NR3B3 (ERRγ); conditions: (lit.); ref Supplementary Table 1; read-out: Potency [nM] IC50, NR3B3 (ERRγ); cited from earlier work
# [10] = tested on: HEK293T cells; experiment: Cytotoxicity: necrosis induction (red fluorescent dye for permeable plasma membranes); assay type: cell-based; conditions: 0.3 µM, 24 h, necrotic cell count normalized to 0.1% DMSO, single replicates;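 further: compounds applied in DMEM high glucose with 0.1% FCS and 0.1% DMSO, necrotic HEK293T cells counted by red staining of cells whose plasma membranes had become permeable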
# Description: Cells were incubated with the test compounds at the indicated concentrations solubilized with 0.1% DMSO for 24 h. […] Necrotic cells were detected with a red fluorescent dye that labels cells with permeable plasma membranes after 24 h treatment and the necrotic cell count was normalized to 0.1% DMSO treated cells (n = 4). e NR family selectivity profiling of NR3 CG compound candidates in uniform Gal4-hybrid reporter gene assays for selected NR representing the NR1, NR2, NR4 and NR5 families.
# HEK293T cells (German Collection of Microorganisms and Cell Culture GmbH, DSMZ; #ACC305) were cultured in DMEM high glucose, supplemented with 10% fetal calf serum (FCS), sodium pyruvate (1 mM), penicillin (100 µ/mL) and streptomycin (100 µg/mL) at 37 °C and 5% (v/v) CO2, and seeded in pre-coated (10 µg/mL collagen G solution (Merck KgaA; #L7213) for 30 min at 37 °C) 96-well plates (2 × 10^5 cells per well). After 24 h, the cells were treated with the respective NR3 CG compound candidate at the recommended concentration, bexarotene (100 µM) or doxorubicin (30 µM) as positive controls in DMEM high glucose supplemented with 0.1% FCS, penicillin (100 µ/mL), streptomycin (100 µg/mL) and 0.1% DMSO, or 0.1% DMSO alone as an untreated control. Each sample was prepared in at least four biologically independent replicates. […] Before drug administration, after the first medium exchange, 24 h after drug administration, and after fluorescence imaging cell confluence was assessed using the Tecan Spark Cyto, to account for changes in cell confluence due to drug administration and cell handling. Compound effects on cell confluence, apoptosis, metabolic activity and necrosis were normalized to the vehicle control of each biological replicate individually.
# [11] = biological target: T6, FGFR3 (Homo sapiens, UniProt P22607); experiment: Liability panel screening by DSF: FGFR3; assay type: binding; conditions: DSF, 20 µM, n=2; read-out: Mean ΔTM FGFR3
# T6 construct: made in house
# Outline: as §1
# [12] = tested on: ATF6 activity in Hela ATF6 reporter cells; experiment: Endoplasmic reticulum stress assay (ATF6 Renilla luciferase reporter, tunicamycin); assay type: cell-based; conditions: Homo sapiens, HeLa, 0.3 µM, single replicates n=1 to n=5; read-out: ER stress [rel. ATF6 activity]
# Outline: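 HeLa ATF6 Renilla reporter cells were pretreated 4 h with compounds in 0.1% DMSO, then stimulated with tunicamycin (100 ng/mL) for 18 h. Renilla luminescence (DualGlo) was normalized to 0.1% DMSO control; five independent experiments.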
# [13] = tested on: HEK293T cells; experiment: Cytotoxicity: apoptosis induction (caspase-3/7 DEVD fluorogenic DNA dye); conditions: for Apoptosis induction [AI]: single replicates
# [14] = biological target: T7, BRPF1 (Homo sapiens, UniProt P55201); experiment: Liability panel screening by DSF: BRPF1; assay type: binding; conditions: DSF, 20 µM, n=2; read-out: Mean ΔTM BRPF1
# T7 construct: This panel comprised ten highly ligandable kinases and bromodomains; made in house
# T7 sequence (P55201 628-732 limits assumed): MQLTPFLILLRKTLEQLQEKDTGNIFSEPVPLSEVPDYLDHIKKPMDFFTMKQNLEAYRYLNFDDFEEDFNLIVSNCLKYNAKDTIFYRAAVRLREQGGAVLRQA
# Outline: as §1
# [15] = biological target: T8, CDK2 (Homo sapiens, UniProt P24941); experiment: Liability panel screening by DSF: CDK2; assay type: binding; conditions: DSF, 20 µM, n=2; read-out: Mean ΔTM CDK2
# T8 construct: made in house
# Outline: as §1
# [16] = biological target: T9, CSNK1D (Homo sapiens, UniProt P48730); experiment: Liability panel screening by DSF: CSNK1D; assay type: binding; conditions: DSF, 20 µM, n=2; read-out: Mean ΔTM CSNK1D
# T9 construct: made in house
# Outline: as §1
# [17] = tested on: Gal4-VP16; assay type: cell-based; conditions: 1 µM
# [18] = biological target: T10, GSK3B (Homo sapiens, UniProt P49841); experiment: Liability panel screening by DSF: GSK3B; assay type: binding; conditions: DSF, 20 µM, n=2; read-out: Mean ΔTM GSK3B
# T10 construct: made in house
# [19] = tested on: HEK293T cells; experiment: Evaluation of cytotoxicity (overall: growth-rate, metabolic activity, apoptosis, necrosis); assay type: cell-based; conditions: HEK293T, 24 h; budesonide (3 µM), others at tested concentration
# Description: The selection of 40 CG candidates was acquired from commercial vendors (purity ≥95%) and applied to initial toxicity screening. Cytotoxicity was determined in HEK293T cells considering growth-rate, metabolic activity as well as apoptosis and/or necrosis induction to evaluate suitability of the compounds for CG application in cellular settings (Fig. 3a–d, Supplementary Fig. 1, Supplementary Data 1). The candidates were generally well tolerated at concentrations >>EC50/IC50 that we recommend for CG application with only four compounds showing mild toxic effects. […] In terms of cytotoxicity, all candidates thus appeared suitable for inclusion in an NR3 CG set.
# [20] = tested on: NR3A1 (ERα); conditions: (lit.); ref Supplementary Table 1; read-out: Potency [nM] EC50, NR3A1 (ERα); cited from earlier work
# [21] = tested on: NR3A2 (ERβ); conditions: (lit.); ref Supplementary Table 1; read-out: Potency [nM] EC50, NR3A2 (ERβ); cited from earlier work
# [22] = cited from earlier work
# T3 sequence (P28482 whole entry, species assumed): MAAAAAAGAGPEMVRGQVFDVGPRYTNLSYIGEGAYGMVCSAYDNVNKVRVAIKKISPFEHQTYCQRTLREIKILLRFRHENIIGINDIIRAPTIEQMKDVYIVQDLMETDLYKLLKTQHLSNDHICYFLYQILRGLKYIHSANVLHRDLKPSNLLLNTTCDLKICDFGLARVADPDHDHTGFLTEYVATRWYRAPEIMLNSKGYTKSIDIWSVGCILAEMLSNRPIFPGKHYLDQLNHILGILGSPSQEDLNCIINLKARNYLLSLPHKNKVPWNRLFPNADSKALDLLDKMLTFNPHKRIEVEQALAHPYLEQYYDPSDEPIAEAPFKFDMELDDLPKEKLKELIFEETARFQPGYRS
# T5 sequence (P00519 whole entry, species assumed): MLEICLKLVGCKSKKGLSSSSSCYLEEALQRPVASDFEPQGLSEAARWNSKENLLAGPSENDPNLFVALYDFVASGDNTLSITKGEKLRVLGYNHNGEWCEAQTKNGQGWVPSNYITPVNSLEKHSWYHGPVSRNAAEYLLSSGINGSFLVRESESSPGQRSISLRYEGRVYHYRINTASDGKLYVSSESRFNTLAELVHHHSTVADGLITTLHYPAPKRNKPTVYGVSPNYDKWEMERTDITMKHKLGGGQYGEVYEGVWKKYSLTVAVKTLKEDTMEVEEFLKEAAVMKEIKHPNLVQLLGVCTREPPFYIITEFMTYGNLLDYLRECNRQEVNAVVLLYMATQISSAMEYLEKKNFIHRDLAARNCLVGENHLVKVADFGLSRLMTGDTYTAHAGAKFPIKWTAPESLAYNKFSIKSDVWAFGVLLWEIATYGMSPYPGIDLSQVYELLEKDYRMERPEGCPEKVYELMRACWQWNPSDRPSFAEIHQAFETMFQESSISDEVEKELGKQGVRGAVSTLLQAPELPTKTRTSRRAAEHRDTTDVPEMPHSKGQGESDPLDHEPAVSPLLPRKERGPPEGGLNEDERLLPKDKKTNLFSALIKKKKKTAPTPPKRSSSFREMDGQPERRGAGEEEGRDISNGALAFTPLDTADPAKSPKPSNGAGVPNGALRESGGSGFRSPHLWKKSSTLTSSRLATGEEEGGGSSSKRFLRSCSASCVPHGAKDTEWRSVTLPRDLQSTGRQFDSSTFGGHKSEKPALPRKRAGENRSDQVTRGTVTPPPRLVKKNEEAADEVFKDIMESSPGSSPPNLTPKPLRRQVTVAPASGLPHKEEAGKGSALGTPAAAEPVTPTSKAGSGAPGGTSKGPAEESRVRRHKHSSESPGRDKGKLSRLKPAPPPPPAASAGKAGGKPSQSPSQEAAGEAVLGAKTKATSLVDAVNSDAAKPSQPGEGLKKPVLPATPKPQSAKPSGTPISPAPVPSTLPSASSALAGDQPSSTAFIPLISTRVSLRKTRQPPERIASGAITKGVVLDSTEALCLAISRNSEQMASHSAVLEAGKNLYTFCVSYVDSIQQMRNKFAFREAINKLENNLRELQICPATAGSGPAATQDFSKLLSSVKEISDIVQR
# T6 sequence (P22607 23-806, species assumed): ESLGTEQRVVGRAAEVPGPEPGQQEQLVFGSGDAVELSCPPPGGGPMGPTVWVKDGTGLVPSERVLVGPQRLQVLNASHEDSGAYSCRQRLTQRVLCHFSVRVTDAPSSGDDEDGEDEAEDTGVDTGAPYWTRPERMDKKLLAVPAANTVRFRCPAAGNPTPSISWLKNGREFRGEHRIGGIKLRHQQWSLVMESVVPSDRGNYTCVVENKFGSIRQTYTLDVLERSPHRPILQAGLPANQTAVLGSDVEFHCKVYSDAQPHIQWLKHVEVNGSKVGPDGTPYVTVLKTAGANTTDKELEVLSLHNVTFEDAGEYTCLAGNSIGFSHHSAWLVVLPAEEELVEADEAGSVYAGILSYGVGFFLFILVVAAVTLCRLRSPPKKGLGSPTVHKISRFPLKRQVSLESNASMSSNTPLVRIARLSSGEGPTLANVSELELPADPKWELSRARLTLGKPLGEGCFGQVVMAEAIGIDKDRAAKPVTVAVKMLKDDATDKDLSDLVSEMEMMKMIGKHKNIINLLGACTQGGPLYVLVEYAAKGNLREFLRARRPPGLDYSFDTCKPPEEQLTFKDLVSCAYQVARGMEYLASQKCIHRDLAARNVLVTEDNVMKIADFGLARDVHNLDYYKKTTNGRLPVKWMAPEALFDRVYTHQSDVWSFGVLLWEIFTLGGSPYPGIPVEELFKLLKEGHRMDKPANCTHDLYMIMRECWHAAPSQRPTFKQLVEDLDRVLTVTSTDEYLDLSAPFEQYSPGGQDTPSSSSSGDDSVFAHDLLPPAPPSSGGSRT
# T9 sequence (P48730 whole entry, species assumed): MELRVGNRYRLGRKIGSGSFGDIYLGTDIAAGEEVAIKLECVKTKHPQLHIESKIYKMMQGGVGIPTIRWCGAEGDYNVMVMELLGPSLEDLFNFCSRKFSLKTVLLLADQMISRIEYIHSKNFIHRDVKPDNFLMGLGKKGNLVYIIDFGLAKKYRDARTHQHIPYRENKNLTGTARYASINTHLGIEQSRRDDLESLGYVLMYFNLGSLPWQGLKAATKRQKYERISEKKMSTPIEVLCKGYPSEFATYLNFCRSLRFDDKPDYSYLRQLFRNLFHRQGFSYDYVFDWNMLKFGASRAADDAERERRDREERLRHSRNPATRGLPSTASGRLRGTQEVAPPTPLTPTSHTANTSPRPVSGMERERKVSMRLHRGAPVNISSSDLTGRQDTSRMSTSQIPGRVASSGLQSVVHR
# T10 sequence (P49841 whole entry, species assumed): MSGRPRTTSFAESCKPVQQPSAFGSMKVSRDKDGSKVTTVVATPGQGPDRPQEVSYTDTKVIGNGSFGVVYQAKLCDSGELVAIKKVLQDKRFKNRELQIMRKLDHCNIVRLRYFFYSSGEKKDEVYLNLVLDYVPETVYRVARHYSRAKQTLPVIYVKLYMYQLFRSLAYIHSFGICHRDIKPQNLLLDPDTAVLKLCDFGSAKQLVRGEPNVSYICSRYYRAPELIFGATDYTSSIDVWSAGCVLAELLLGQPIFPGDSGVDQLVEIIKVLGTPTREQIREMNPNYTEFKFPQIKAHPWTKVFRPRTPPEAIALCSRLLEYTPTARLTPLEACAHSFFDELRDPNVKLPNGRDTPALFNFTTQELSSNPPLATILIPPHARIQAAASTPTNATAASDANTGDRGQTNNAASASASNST
structure (smiles),measurement,setting,value
CC(C)(c1ccc(O)cc1)c1ccc(O)cc1 [Bisphenol A],ΔTm at 20 µM,[1],0.19 °C
same,ΔTm at 20 µM,[2],-1.35 °C
same,Mean NFκB response,"[3]; 0.3 µM, 1,5 h",2380.54 GFP+-cells/confluence ∙ 1000
same,Mean NFκB response,"[3]; 0.3 µM, 4,5 h",2758.19 GFP+-cells/confluence ∙ 1000
same,Mean NFκB response,"[3]; 0.3 µM, 7,5 h",7233.84 GFP+-cells/confluence ∙ 1000
same,Mean NFκB response,"[3]; 0.3 µM, 10,5 h",19121.46 GFP+-cells/confluence ∙ 1000
same,Mean NFκB response,"[3]; 0.3 µM, 13,5 h",28203.30 GFP+-cells/confluence ∙ 1000
same,Mean NFκB response,"[3]; 0.3 µM, 16,6 h",34624.31 GFP+-cells/confluence ∙ 1000
same,Mean NFκB response,"[3]; 0.3 µM, 19,5 h",39396.74 GFP+-cells/confluence ∙ 1000
same,Mean NFκB response,"[3]; 0.3 µM, 22,5 h",42069.32 GFP+-cells/confluence ∙ 1000
same,Mean NFκB response,"[3]; 0.3 µM, 3 h",2422.37 GFP+-cells/confluence ∙ 1000
same,Mean NFκB response,"[3]; 0.3 µM, 6 h",3882.85 GFP+-cells/confluence ∙ 1000
same,Mean NFκB response,"[3]; 0.3 µM, 9 h",13703.44 GFP+-cells/confluence ∙ 1000
same,Mean NFκB response,"[3]; 0.3 µM, 12 h",24104.26 GFP+-cells/confluence ∙ 1000
same,Mean NFκB response,"[3]; 0.3 µM, 15 h",31750.86 GFP+-cells/confluence ∙ 1000
same,Mean NFκB response,"[3]; 0.3 µM, 18 h",37025.53 GFP+-cells/confluence ∙ 1000
same,Mean NFκB response,"[3]; 0.3 µM, 21 h",40865.92 GFP+-cells/confluence ∙ 1000
same,Mean NFκB response,"[3]; 0.3 µM, 24 h",43618.62 GFP+-cells/confluence ∙ 1000
same,Metabolic activity [MA],"[4]; 0.3 µM, HEK293T, 24 h, WST-8, normalized to 0.1% DMSO",1.05 (2×) and 0.84 and 0.94 and 1.07 and 0.99 (2×) and 1.13
same,ΔTm at 20 µM,[5],0.26 °C
same,ΔTm at 20 µM,[6],-2.63 °C
same,ΔTm at 20 µM,[7],0.26 °C
same,Growth rate [GR],[8]; 0.3 µM,0.54 and 1.52 and 0.90 (2×) and 1.13 and 0.87 and 0.95 and 0.88 and 2.38 and 0.44
same,IC50,[9],13 ± 2 nM
same,Necrosis induction [NI],[10],0.87 and 0.82 and 0.90 and 1.20
same,ΔTm at 20 µM,[11],0.44 °C
same,activity at 0.3 µM,[12],96%
same,Apoptosis induction [AI],"[13]; 0.3 µM, HEK293T, 24 h, apoptotic cell count normalized to 0.1% DMSO",0.73 and 0.80 and 0.66 and 1.02 and 0.52 and 0.91
same,ΔTm at 20 µM,[14],-2.21 °C
same,ΔTm at 20 µM,[15],1.16 °C
C#C[C@]1(O)CC[C@H]2[C@@H]3CCc4cc(O)ccc4[C@H]3CC[C@@]21C [Ethinylestradiol],ΔTm at 20 µM,[16],0.07 °C
same,ΔTm at 20 µM,[1],0.11 °C
same,ΔTm at 20 µM,[2],-1.12 °C
same,Metabolic activity [MA],"[4]; 1 µM, DMSO 0.1% = 1.00",1.06 (2×) and 0.82 and 1.07 and 1.00 and 0.95
same,ΔTm at 20 µM,[5],0.35 °C
same,ΔTm at 20 µM,[6],0.13 °C
same,"VP16 control [fold reporter gene activity] (n=3), n=1",[17]; replicate n=1,1.03 fold
same,"VP16 control [fold reporter gene activity] (n=3), n=2",[17]; replicate n=2,0.89 fold
same,"VP16 control [fold reporter gene activity] (n=3), n=3",[17]; replicate n=3,0.92 fold
same,ΔTm at 20 µM,[18],0.23 °C
same,"effects on growth-rate, metabolic activity and necrosis",[19],without relevant effects
same,ΔTm at 20 µM,[7],-0.29 °C
same,Growth rate [GR],[8]; 1 µM,1.36 and 0.84 and 1.03 and 0.88 and 0.94 and 0.78
same,EC50,[20],8 ± 1 nM
same,ΔTm at 20 µM,[11],-0.28 °C
same,EC50,[21],18 ± 2 nM
same,Apoptosis induction [AI],"[13]; 1 µM, DMSO 0.1% = 1.00",1.56 and 1.81
same,apoptosis induction,"[13]; HEK293T, 24 h, budesonide (3 µM), others at tested concentration",slight apoptosis induction
same,ΔTm at 20 µM,[14],1.32 °C
same,NR off-target at recom. conc.,"[22]; known NR off-target at the recommended concentration, ref Supplementary Table 1 (superscript references)",NR1I3
same,Other off-target at recom. conc.,"[22]; known off-target outside the NR family at the recommended concentration, ref Supplementary Table 1 (superscript references)",AOX1 and CYP2B6 and SULT1A1 and OCT2
same,Reason for exclusion: number of annotated off-targets,[22]; other targets with annotated bioactivities at ≤10 µM in previously published dataset,> 5 off-targets
same,ΔTm at 20 µM,[15],-0.25 °C
